| Compound | melting point [°C] |
| --- | --- |
| COc1ccc(-n2cnc3cc(N)ccc32)cc1 | 44 to 45 |
| CC(=O)N1CCN(C(=O)Cc2ccc(Cl)c(Cl)c2)C(CN2CCC(O)C2)C1 (centres undefined) | 133 |
| FC(F)(F)Oc1ccc(-c2coc3ccc(-c4nnc(S)o4)cc23)cc1 | 197 to 198 |
| COc1ccc(OC)c(/C=C/C(=O)/C=C/C(=O)O)c1 | 145 to 146 |
| O=c1oc(-c2cccc(C(F)(F)F)c2)nc2ccc(F)cc12 | 118 to 119 |
| COc1cc(C)cc(OC)c1N(C)C(C)=O | 160 to 161 |
| COC(=O)c1ccc(C#CC#C[Si](C)(C)C)cc1 | 67 to 68 |
| CC(C)S(=O)(=O)c1cc(OCCc2ccccn2)c2[nH]nc(Nc3nccs3)c2c1 | 190 to 191 |
| OCc1cc(Cl)c(F)c(Cl)c1F | 55 |
| O=[N+]([O-])c1ccccc1NCc1cc(Cl)cc(Cl)c1 | 138 to 140 |
| CC(C)(C)c1cc(N=Nc2ccc(Cl)cc2Cl)c(O)c(C(C)(C)C)c1 | 164 to 168 |
| O=C(O)C1=CSC2C(=Cc3cc4c(s3)CCSC4)C(=O)N12 (centres undefined) | > 250 |
| CC(C)(C)CC(C)(C)c1ccc2c(c1)C(=O)NS2(=O)=O | 213 to 215 |
| CCOC(=O)c1sc2cc(OCc3ccccc3)ccc2c1Sc1ccccc1 | 96 to 97 |
| NC(=O)c1ccc(OC(F)(F)C(F)(F)Br)cc1 | 150 to 152 |
| CNC(=O)Nc1ccc(-c2ccncc2)c(C)n1 | 213 to 214 |
| Cc1cc(C(C)(C)C)c(O)c(S(=O)(=O)Nc2ccc(I)cc2)c1 | 184 to 185 |

| Compound | melting point [°C] |
| --- | --- |
| CCNC(=O)Nc1n[nH]c2ccc(-c3ncccc3Cl)cc12 | 178 to 180 |
| S=c1c2[nH]cnc2c2cccnc2n1-c1ccccc1 | > 300 |
| CN(C)CCNC(=O)Cn1c(-c2cccc(Cl)c2)nc2cccnc21 | 124 to 125 |
| O=C(O)c1csc(CO)c1 | 149 |
| CC(C)(C)NC(=O)[C@H](Cc1ccc(OCc2c(Cl)cccc2Cl)cc1)NC(=O)OC(C)(C)C | 82 to 86 |
| CN(CCCc1c(N)nc(N)[nH]c1=O)c1ccc(C(=O)N[C@@H](CCC(=O)O)C(=O)O)cc1 | 190 to 200 |
| CSc1ncc2cc(C)c(N)nc2n1 | 268 to 270 |
| O=C1c2cccc3c4c(cc(c23)C(=O)N1O)OCOC4 | > 350 |
| Cc1nc(-n2ccc(OCc3ccccc3)cc2=O)n(C)c1C(=O)NCc1ccccc1 | 232 to 233 |
| CCCCN(CCCC)c1ccc(C=Cc2cc(C)c(C=CC3=C(C#N)C(=C(C#N)C#N)OC3(c3ccccc3)C(F)(F)F)cc2C)c(OC)c1 (centres undefined) | 177 to 179 |
| Cc1nc(-c2cccc(C(F)(F)F)c2)ccc1CO | 73 to 75 |
| FC(F)(F)c1ccc2nc(N3CCN(Cc4c(Cl)cccc4Cl)CC3)[nH]c2c1 | 254 to 256 |
| O=S(=O)(O)COc1ccc(Cl)cc1Br | > 315 |
| CC(C#N)(c1ccccc1)c1ccc([N+](=O)[O-])cc1 (centres undefined) | 76 to 78 |
| O=[N+]([O-])c1ccc(S(=O)(=O)Nc2cccnc2Nc2ccccc2)cc1 | 191 to 192 |
| CCCOc1nc(NC(C)=O)nc2ccc(Cl)nc12 | 191 |

Now from value to molecule:

| melting point [°C] | Compound |
| --- | --- |
| 147 to 149 | Cc1ccc(C(=O)N(C(C)C)C(C)C)c(C(=O)O)c1F |
| 100 to 105 | CCN1C(=O)C(C)(C)C(=O)N(C)c2cc(CN(CCn3cc(C)c4occc4c3=O)Cc3cncn3C)ccc21 |
| 120 to 121 | CC[C@H](CCC(=O)OC(C)(C)C)C(=O)N[C@@H](Cc1ccccc1)C(=O)OC |
| 130 | COc1cc2c(cc1OC)CC(=O)N(CCCN(C)C1CCc3cc(Cl)c(Cl)cc3C1)CC2 (centres undefined) |
| 145 to 150 | O=C(O)CN1CCCC(n2nc(-c3c(-c4ccccc4)nn4ccccc34)ccc2=O)C1=O (centres undefined) |
| 172 to 174 | O=C1CC2(CN1)CC(O)c1cc(Cl)ccc12 (centres undefined) |
| 91 to 93 | CCOC(C)OCC(C)C1CCC2C3C=CC4=CC(=O)C5OC5C4(C)C3CCC12C (centres undefined) |
| 111 to 112 | CC(C)c1ccc2nc3ccc(C(=O)OCCCc4cccnc4)cc3c(=O)n2c1 |
| 193 to 195 | C[C@@H]1C[C@H](C)CN(S(=O)(=O)c2ccc(Cl)c(C(=O)NCCCC(=O)O)c2)C1 |
| 198 to 199 | CCCCc1nc2cnc3cccnc3c2n1CCNC(=O)OC(C)(C)C |
| 251 to 254 | CC1(C)Oc2ccc(C3=NNC(=O)CC3)cc2NC1=O |
| 142 to 143 | COc1ccc(/C=N/Nc2ccccn2)cc1OC1CCCC1 |
| 246 to 249 | C[C@H]1[C@H](N(C)C(=O)C(F)(F)F)CN1c1c(F)cc2c(=O)c(C(=O)O)cn(C3CC3)c2c1F (relative stereo) |
| 113 to 115 | Cn1c2c(ccc1=O)C(NCCc1ccc3ccccc3c1)CCC2 (centres undefined) |
| 166 to 167 | Cc1cccc(C)c1SC(CC(C)C)c1c(O)cc(-c2ccccc2)oc1=O (centres undefined) |
| 204 to 208 | CC1(C)Oc2ccc(C#N)cc2[C@@H](Nc2cc(Cl)ncn2)[C@@H]1O (relative stereo) |

Reference: a melting point compilation (Tetko et al.; mined from patent text by program, amines drawn as free bases though some values may be those of a salt)
